For data set [1], the system named is Plasmodium cynomolgi. As to the kind of experiment: Antimalarial activity against Plasmodium cynomolgi infected in rhesus monkey assessed as curative activity without disease relapses until 90 days at 0.25 mg/kg administered qd for 7 days via stomach tube. In kind it is functional, organism-based. Also noted: dose 0.25 mg/kg.
Data set [2] concerns Plasmodium cynomolgi. The experiment in a line: Antimalarial activity against Plasmodium cynomolgi infected in rhesus monkey assessed as disease relapsing day at 1 mg/kg administered qd for 7 days via stomach tube. It is filed as functional.
Data set [3] has as its system Plasmodium cynomolgi. The experiment in a line: Antimalarial activity against Plasmodium cynomolgi infected in rhesus monkey assessed as disease relapsing day at 0.25 mg/kg administered qd for 7 days via stomach tube. It is filed as functional.
For data set [4], the system named is Plasmodium cynomolgi. The experiment in a line: Antimalarial activity against Plasmodium cynomolgi infected in rhesus monkey assessed as disease relapsing day at 0.5 mg/kg administered qd for 7 days via stomach tube. In kind it is functional.
Data set [5] deals with Plasmodium cynomolgi. As to the kind of experiment: Antimalarial activity against Plasmodium cynomolgi infected in rhesus monkey assessed as curative activity without disease relapses until 90 days at 1 mg/kg administered qd for 7 days via stomach tube. In kind it is functional, organism-based. Further details: dose 1 mg/kg.
For data set [6], the system named is Plasmodium berghei yoelii. The experiment in a line: Antimalarial activity against sporozite stage of Plasmodium berghei yoelii infected in mouse assessed as host survival at 10 to 40 mg/kg, po. In kind it is functional, organism-based.
For data set [7], the system named is Plasmodium berghei. As to the kind of experiment: Antimalarial activity against blood schizonticidal Plasmodium berghei infected in mouse assessed as change in host mean survival time at 640 mg/kg. In kind it is functional.
For data set [8], the system named is Plasmodium berghei. As to the kind of experiment: Antimalarial activity against blood schizonticidal Plasmodium berghei infected in mouse assessed as change in host mean survival time at 40 mg/kg. In kind it is functional.
In data set [9] the test system is Plasmodium berghei. As to the kind of experiment: Antimalarial activity against blood schizonticidal Plasmodium berghei infected in mouse assessed as change in host mean survival time at 160 mg/kg. In kind it is functional.
The subject of data set [10] is Plasmodium berghei. The experiment in a line: Antimalarial activity against blood schizonticidal Plasmodium berghei infected in mouse assessed as change in host mean survival time at 320 mg/kg. It is filed as functional.
The test system of data set [11] is Plasmodium berghei. As to the kind of experiment: Antimalarial activity against blood schizonticidal Plasmodium berghei infected in mouse assessed as change in host mean survival time at 20 mg/kg. It is filed as functional.
The test system of data set [12] is Plasmodium berghei yoelii. As to the kind of experiment: Antimalarial activity against sporozite stage of Plasmodium berghei yoelii infected in mouse assessed as host survival at 10 to 160 mg/kg, sc. In kind it is functional, organism-based.
In data set [13] the test system is Plasmodium cynomolgi. As to the kind of experiment: Antimalarial activity against Plasmodium cynomolgi infected in rhesus monkey assessed as disease relapsing day at 0.125 mg/kg administered qd for 7 days via stomach tube. It is filed as functional.
Data set [14] has as its system Plasmodium berghei. As to the kind of experiment: Antimalarial activity against blood schizonticidal Plasmodium berghei infected in mouse assessed as change in host mean survival time at 80 mg/kg. It is filed as functional.
Data set [15] has as its system Plasmodium berghei yoelii. The experiment in a line: Antimalarial activity against sporozite stage of Plasmodium berghei yoelii infected in mouse assessed as curative activity at 160 mg/kg, po. In kind it is functional, organism-based. Also noted: dose 160 mg/kg.
In data set [16] the test system is Mus musculus. As to the kind of experiment: Toxicity in mouse infected with blood schizonticidal Plasmodium berghei assessed as mortality at 160 mg/kg measured on days 2 to 5 after infection. In kind it is organism-based. Further details: dose 160 mg/kg. The note with it: in vivo.
The subject of data set [17] is Mus musculus. As to the kind of experiment: Toxicity in mouse infected with blood schizonticidal Plasmodium berghei assessed as mortality at 320 mg/kg measured on days 2 to 5 after infection. Conditions: in vivo. In kind it is organism-based. Further details: dose 320 mg/kg.
The test system of data set [18] is Plasmodium cynomolgi. As to the kind of experiment: Antimalarial activity against Plasmodium cynomolgi infected in rhesus monkey assessed as curative activity without disease relapses until 90 days at 0.375 mg/kg administered qd for 7 days via stomach tube. It is filed as functional, organism-based. Further details: dose 0.375 mg/kg.
In data set [19] the test system is Mus musculus. As to the kind of experiment: Toxicity in mouse infected with blood schizonticidal Plasmodium berghei assessed as mortality at 640 mg/kg measured on days 2 to 5 after infection. Further details: dose 640 mg/kg. Conditions: in vivo. It is filed as organism-based.
The subject of data set [20] is Plasmodium cynomolgi. The experiment in a line: Antimalarial activity against Plasmodium cynomolgi infected in rhesus monkey assessed as curative activity without disease relapses until 90 days at 0.75 mg/kg administered qd for 7 days via stomach tube. It is filed as functional, organism-based. Also noted: dose 0.75 mg/kg.
The subject of data set [21] is Plasmodium cynomolgi. The experiment in a line: Antimalarial activity against Plasmodium cynomolgi infected in rhesus monkey assessed as disease relapsing day at 0.375 mg/kg administered qd for 7 days via stomach tube. It is filed as functional.
Data set [22] concerns Mus musculus. The experiment in a line: Toxicity in mouse infected with blood schizonticidal Plasmodium berghei assessed as mortality at 80 mg/kg measured on days 2 to 5 after infection. In kind it is organism-based. Also noted: dose 80 mg/kg. Conditions: in vivo.
Data set [23] concerns Plasmodium cynomolgi. The experiment in a line: Antimalarial activity against Plasmodium cynomolgi infected in rhesus monkey assessed as curative activity without disease relapses until 90 days at 0.125 mg/kg administered qd for 7 days via stomach tube. It is filed as functional, organism-based. Also noted: dose 0.125 mg/kg.

The structures appear in SMILES notation. Active and inactive are the calls of the source. The calls are words filed in the database; no cut-off is given here.

As to `COc1cc(NC(C)CCCN)c2nccc(CCSc3ccc(F)cc3)c2c1` (configuration not stated), the result with Plasmodium cynomolgi [1] and in the data set with Plasmodium cynomolgi [5] was inactive. The figures for the Time in the data set on Plasmodium cynomolgi [2], in the data set with Plasmodium cynomolgi [3] and in the data set with Plasmodium cynomolgi [4] were 6 days, 13 days and 7 days, respectively.

Turning to `COc1ccc(SCCc2ccnc3c(NC(C)CCCN)cc(OC)cc23)cc1` (configuration not stated), the result in data set [6] and in [12] was inactive. In addition, the MST in the data set on Plasmodium berghei [7] was determined as 7.5 days; in the data set on Plasmodium berghei [8], 0.3 days; in the data set with Plasmodium berghei [9] it was 2.7 days; in the data set with Plasmodium berghei [10] it was 6.1 days; with Plasmodium berghei [11] it was 0.1 days; in the data set on Plasmodium berghei [14], 2.1 days. Besides, the Time in the data set on Plasmodium cynomolgi [13] came to 9 days. Further, the outcome in data set [15] was Active.

Regarding `COc1cc(NC(C)CCCN)c2ncccc2c1` (configuration not stated) [PRIMAQUINE], the figures for the MST in the data set with Plasmodium berghei [8], in the data set on Plasmodium berghei [11] and in the data set on Plasmodium berghei [14] were 5 days, 4 days and 9.4 days, respectively. For the same molecule, the Activity entry with Mus musculus [16], in the data set on Mus musculus [17] and in the data set with Mus musculus [19] was “Toxic” in each case. Moreover, the outcome in the data set on Plasmodium cynomolgi [18] was inactive. Further, the Time with Plasmodium cynomolgi [4] and in the data set with Plasmodium cynomolgi [21] was 11 days throughout. For the same molecule, the outcome with Plasmodium cynomolgi [20] was Active.

As for `CCc1ccnc2c(NCCCCCCN)cc(OC)cc12`, the Activity entry in the data set on Mus musculus [22] and in the data set with Mus musculus [16] was “Toxic” in each case. Moreover, the MST with Plasmodium berghei [8] came to 0.8 days; in the data set on Plasmodium berghei [14] it was 4.8 days.

Turning to `COc1cc(NC(C)CCCN)c2nccc(CCSc3ccc(Cl)cc3)c2c1` (configuration not stated), the MST with Plasmodium berghei [7] came to 14.6 days; in the data set on Plasmodium berghei [8], 3.3 days; with Plasmodium berghei [9], 7.7 days; with Plasmodium berghei [10] it was 8.9 days; with Plasmodium berghei [11] it was 2.3 days; in the data set on Plasmodium berghei [14], 6.3 days.

As to `CCc1ccnc2c(NCCCCCCN(CC)CC)cc(OC)cc12`, the MST in the data set on Plasmodium berghei [7] amounted to 7.9 days; in the data set on Plasmodium berghei [8], 1.7 days; in the data set with Plasmodium berghei [9], 5.5 days; in the data set on Plasmodium berghei [10], 6.7 days; in the data set on Plasmodium berghei [11], 0.5 days; with Plasmodium berghei [14] it was 3.3 days.

Take `CCc1ccnc2c(NC(C)CCCN)cc(OC)cc12` (configuration not stated): the result with Plasmodium cynomolgi [1] and in the data set with Plasmodium cynomolgi [23] was inactive. Also, the MST amounted to 3.8 days in the data set with Plasmodium berghei [8]; 6.4 days in the data set on Plasmodium berghei [9]; 11.5 days with Plasmodium berghei [10]; 2.8 days with Plasmodium berghei [11]; 5.2 days with Plasmodium berghei [14]. In addition, the Time is 37 days in the data set with Plasmodium cynomolgi [2], 7 days in the data set on Plasmodium cynomolgi [3] and 28 days with Plasmodium cynomolgi [4].

In the case of `CCc1ccnc2c(NC(C)CCCN(CC)CC)cc(OC)cc12` (configuration not stated), the MST stood at 1.5 days in the data set on Plasmodium berghei [8], 6.6 days in the data set on Plasmodium berghei [9], 1.1 days in the data set with Plasmodium berghei [11] and 3.7 days in the data set with Plasmodium berghei [14]. Also, the Activity entry with Mus musculus [17] and in the data set with Mus musculus [19] was “Toxic” in each case.

On to `C=Cc1ccnc2c(NC(C)CCCN)cc(OC)cc12` (configuration not stated), for which the result in the data set with Plasmodium cynomolgi [1] was inactive. Moreover, the MST with Plasmodium berghei [8] was found to be 1.7 days; with Plasmodium berghei [9] it was 8.7 days; in the data set with Plasmodium berghei [10], 7.7 days; in the data set with Plasmodium berghei [11], 1.1 days; in the data set with Plasmodium berghei [14] it was 5.9 days. Besides, the Time came to 24 days with Plasmodium cynomolgi [2], 7 days in the data set with Plasmodium cynomolgi [3] and 10 days in the data set on Plasmodium cynomolgi [4]. Besides, the Activity result with Mus musculus [17] and with Mus musculus [19] was “Toxic” in each case.

For `CCc1ccnc2c(NC(C)CCCNC(C)C)cc(OC)cc12` (configuration not stated), the MST in the data set with Plasmodium berghei [8] is 2.3 days; with Plasmodium berghei [9], 6.7 days; in the data set with Plasmodium berghei [10], 10.5 days; in the data set on Plasmodium berghei [11], -0.3 days; with Plasmodium berghei [14], 3.5 days. Also, in the data set on Mus musculus [19], the Activity result was “Toxic”.

Take `CCc1ccnc2c(NCCCCCCN3CCN(CCO)CC3)cc(OC)cc12`: the MST in the data set with Plasmodium berghei [8] is 0.7 days; in the data set on Plasmodium berghei [9] it was 2.5 days; in the data set with Plasmodium berghei [10], 4.1 days; in the data set with Plasmodium berghei [11], 0.1 days; with Plasmodium berghei [14], 2.7 days. Moreover, the Activity result in the data set with Mus musculus [19] is “Toxic”.

`CCc1ccnc2c(NCCCCN)cc(OC)cc12`: the MST was 7.9 days with Plasmodium berghei [7]; 1.7 days in the data set with Plasmodium berghei [8]; 2.9 days in the data set with Plasmodium berghei [9]; 6.3 days in the data set with Plasmodium berghei [10]; 0.9 days with Plasmodium berghei [11]; 2.1 days in the data set on Plasmodium berghei [14]. For the same molecule, the Activity entry with Mus musculus [19] is reported as “Non-toxic”.

Values taken from ChEMBL document CHEMBL3227982, “Synthesis of some 4-substituted 8-amino-6-methoxyquinolines as potential antimalarials” (J Med Chem, 1979).
